{"source": "ChEMBL document CHEMBL4420066", "about": "“Aryl amine substituted quinoxaline used as anticancer drugs” (2017)", "key": {"[1]": {"tested_on": "SK-HEP1", "test": "Induction of apoptosis in human SKHEP1 cells assessed as induction of DNA fragmentation at 1 uM incubated for 24 hrs by ELISA", "assay_type": "functional, cell-based"}, "[2]": {"tested_on": "HA22T cell line", "test": "Induction of apoptosis in human HA22T cells >= 2 uM incubated for 48 hrs by annexin-V-FITC staining based by flow cytometry relative to control", "assay_type": "functional"}, "[3]": {"species": "Homo sapiens", "test": "Induction of necrosis in human PLC5cells >= 2 uM incubated for 48 hrs by annexin-V-FITC staining based by flow cytometry relative to control", "assay_type": "functional"}, "[4]": {"species": "Homo sapiens", "test": "Induction of apoptosis in human PLC5 cells assessed as induction of PARP cleavage at 0.5 to 4 uM incubated for 48 hrs by Western blotting analysis", "assay_type": "functional, cell-based"}, "[5]": {"species": "Homo sapiens", "test": "Inhibition of His-tagged recombinant human SET1 protein (1 to 290 amino acids) expressed in Escherichia coli interaction with N-terminal GST-tagged recombinant human PP2A-C (1 to 309 amino acids) assessed as minimal concentration causing disruption of SET-PP2Ac binding by SPR assay"}, "[6]": {"tested_on": "HA22T cell line", "test": "Inhibition of PP2A-B5 protein expression in human HA22T cells at 1 uM incubated for 24 hrs by Western blotting analysis", "assay_type": "functional, cell-based"}, "[7]": {"tested_on": "Hep 3B2", "test": "Induction of apoptosis in human Hep3B cells >= 2 uM incubated for 48 hrs by annexin-V-FITC staining based by flow cytometry relative to control", "assay_type": "functional"}, "[8]": {"tested_on": "SK-HEP1", "test": "Induction of apoptosis in human SKHEP1 cells assessed as accumulation at subG1 phase at 0.5 to 4 uM by flow cytometry", "assay_type": "functional, cell-based"}, "[9]": {"biological_target": "T1, Serine/threonine-protein kinase AKT (Homo sapiens) (UniProt P31751+Q9Y243+P31749)", "T1 sequence (P31749 whole entry, looked up)": "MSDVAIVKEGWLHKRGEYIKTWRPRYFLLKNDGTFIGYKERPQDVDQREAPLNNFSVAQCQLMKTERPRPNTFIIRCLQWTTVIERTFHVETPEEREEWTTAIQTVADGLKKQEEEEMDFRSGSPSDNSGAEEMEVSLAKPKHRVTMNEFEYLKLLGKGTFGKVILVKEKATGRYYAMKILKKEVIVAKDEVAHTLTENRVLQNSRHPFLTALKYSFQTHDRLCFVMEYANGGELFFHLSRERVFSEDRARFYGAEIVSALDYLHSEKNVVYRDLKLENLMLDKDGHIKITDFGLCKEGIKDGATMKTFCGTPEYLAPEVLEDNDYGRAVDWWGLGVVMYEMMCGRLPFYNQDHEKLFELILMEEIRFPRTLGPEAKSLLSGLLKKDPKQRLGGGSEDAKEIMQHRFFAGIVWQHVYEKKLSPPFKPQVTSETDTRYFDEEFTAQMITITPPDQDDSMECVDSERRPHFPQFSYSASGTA", "T1 sequence (P31751 whole entry, looked up)": "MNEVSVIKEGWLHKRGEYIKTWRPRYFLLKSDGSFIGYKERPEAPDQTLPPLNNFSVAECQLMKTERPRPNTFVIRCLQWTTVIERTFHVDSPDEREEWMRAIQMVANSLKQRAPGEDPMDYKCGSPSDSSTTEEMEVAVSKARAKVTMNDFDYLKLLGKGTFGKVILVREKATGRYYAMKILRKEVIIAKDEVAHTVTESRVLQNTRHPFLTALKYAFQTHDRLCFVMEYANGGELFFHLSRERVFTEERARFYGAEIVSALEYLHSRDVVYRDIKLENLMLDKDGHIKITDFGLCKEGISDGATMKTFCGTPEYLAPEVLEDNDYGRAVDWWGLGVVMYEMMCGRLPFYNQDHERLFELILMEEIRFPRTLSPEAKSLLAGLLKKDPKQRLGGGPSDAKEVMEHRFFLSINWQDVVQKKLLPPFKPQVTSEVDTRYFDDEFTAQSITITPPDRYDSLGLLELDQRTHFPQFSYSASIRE", "T1 sequence (Q9Y243 whole entry, looked up)": "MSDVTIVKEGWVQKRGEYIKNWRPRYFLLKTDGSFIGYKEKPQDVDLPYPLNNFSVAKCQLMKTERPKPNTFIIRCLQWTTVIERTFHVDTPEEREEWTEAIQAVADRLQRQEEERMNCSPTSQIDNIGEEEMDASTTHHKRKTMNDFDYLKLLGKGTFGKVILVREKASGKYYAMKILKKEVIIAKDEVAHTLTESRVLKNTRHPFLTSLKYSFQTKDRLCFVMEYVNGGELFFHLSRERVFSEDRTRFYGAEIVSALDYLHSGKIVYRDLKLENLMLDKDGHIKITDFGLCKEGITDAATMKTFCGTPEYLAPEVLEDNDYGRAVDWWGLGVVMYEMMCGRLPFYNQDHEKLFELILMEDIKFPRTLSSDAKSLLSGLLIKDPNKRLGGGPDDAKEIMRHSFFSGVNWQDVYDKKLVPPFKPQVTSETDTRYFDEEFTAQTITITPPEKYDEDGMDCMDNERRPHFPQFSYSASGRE", "test": "Inhibition of Akt phosphorylation at S473 residue in human HA22T cells by Western blotting analysis", "assay_type": "cell-based"}, "[10]": {"tested_on": "Hep 3B2", "test": "Induction of apoptosis in human Hep3B cells assessed as induction of PARP cleavage at 0.5 to 4 uM incubated for 48 hrs by Western blotting analysis", "assay_type": "functional, cell-based"}, "[11]": {"tested_on": "SK-HEP1", "test": "Inhibition of CIP2A protein expression in human SKHEP1 cells assessed as CIP2A protein expression ratio level at 2 uM by Western blotting analysis (Rvb =1)", "assay_type": "functional"}, "[12]": {"biological_target": "T1, Serine/threonine-protein kinase AKT (Homo sapiens)", "test": "Inhibition of Akt phosphorylation at S473 residue in human PLC5 cells at 2 uM incubated for 24 hrs in presence of 100 nM PP2A inhibitor okadaic acid by Western blotting analysis", "assay_type": "cell-based"}, "[13]": {"tested_on": "Hep 3B2", "test": "Induction of apoptosis in human Hep3B cells assessed as induction of PARP cleavage at 2 uM in presence of caspase inhibitor Z-VAD-fmk incubated for 48 hrs by Western blotting analysis", "assay_type": "functional, cell-based"}, "[14]": {"species": "Homo sapiens", "test": "Activation of PP2A in human SKHEP1 cells assessed as minimal concentration causing increase in protein phosphatase activity incubated for 24 hrs using phosphopeptide substrate incubated for 10 mins by malachite green-phosphate complex assay", "assay_type": "cell-based"}, "[15]": {"tested_on": "HA22T cell line", "test": "Induction of apoptosis in human HA22T cells assessed as caspase-3 activation at 0.5 to 4 uM incubated for 48 hrs by Western blotting analysis", "assay_type": "functional, cell-based"}, "[16]": {"tested_on": "Hep 3B2", "test": "Inhibition of CIP2A protein expression in human Hep3B cells assessed as CIP2A protein expression ratio level at 0.5 uM by Western blotting analysis (Rvb =1)", "assay_type": "functional"}, "[17]": {"tested_on": "SK-HEP1", "test": "Induction of necrosis in human SKHEP1 cells >= 2 uM incubated for 48 hrs by annexin-V-FITC staining based by flow cytometry relative to control", "assay_type": "functional"}, "[18]": {"tested_on": "SK-HEP1", "test": "Induction of apoptosis in human SKHEP1 cells assessed as caspase-3 activation at 0.5 to 4 uM incubated for 48 hrs by Western blotting analysis", "assay_type": "functional, cell-based"}, "[19]": {"species": "Homo sapiens", "test": "Inhibition of CIP2A protein expression in human PLC5 cells by Western blotting analysis", "assay_type": "functional, cell-based"}, "[20]": {"tested_on": "HA22T cell line", "test": "Induction of apoptosis in human HA22T cells assessed as induction of PARP cleavage at 0.5 to 4 uM incubated for 48 hrs by Western blotting analysis", "assay_type": "functional, cell-based"}, "[21]": {"tested_on": "Hep 3B2", "test": "Inhibition of CIP2A protein expression in human Hep3B cells by Western blotting analysis", "assay_type": "functional, cell-based"}, "[22]": {"species": "Homo sapiens", "test": "Induction of apoptosis in human PLC5 cells with ectopic overexpression of GFP-tagged Elk-1 at 2 uM incubated for 24 hrs by annexin-V-FITC staining based by flow cytometry", "assay_type": "functional, cell-based"}, "[23]": {"species": "Homo sapiens", "test": "Activation of PP2A in human Hep3B cells assessed as increase in protein phosphatase activity at 1 uM incubated for 24 hrs using phosphopeptide substrate incubated for 10 mins by malachite green-phosphate complex assay", "assay_type": "cell-based"}, "[24]": {"test": "Inhibition of CIP2A protein expression in human PLC5 cells assessed as CIP2A protein expression ratio level at 0.5 uM by Western blotting analysis (Rvb =1)", "assay_type": "functional"}, "[25]": {"tested_on": "HA22T cell line", "test": "Inhibition of CIP2A protein expression in human HA22T cells assessed as CIP2A protein expression ratio level at 0.5 uM by Western blotting analysis (Rvb =1)", "assay_type": "functional"}, "[26]": {"species": "Homo sapiens", "test": "Activation of PP2A in human HA22T cells assessed as increase in protein phosphatase activity at 1 uM incubated for 24 hrs using phosphopeptide substrate incubated for 10 mins by malachite green-phosphate complex assay", "assay_type": "cell-based"}, "[27]": {"biological_target": "T1, Serine/threonine-protein kinase AKT (Homo sapiens)", "test": "Inhibition of Akt phosphorylation at S473 residue in human PLC5 cells by Western blotting analysis", "assay_type": "cell-based"}, "[28]": {"species": "Homo sapiens", "test": "Inhibition of CIP2A protein expression in human PLC5 cells at 2 uM by Western blotting analysis", "assay_type": "functional, cell-based"}, "[29]": {"tested_on": "Hep 3B2", "test": "Inhibition of PP2A-C protein expression in human Hep3B cells at 1 uM incubated for 24 hrs by Western blotting analysis", "assay_type": "functional, cell-based"}, "[30]": {"species": "Homo sapiens", "test": "Inhibition of human CIP2A gene promoter -110/-1 mutant construct activity in human PLC5 cells by luciferase reporter gene assay", "assay_type": "cell-based"}, "[31]": {"species": "Homo sapiens", "test": "Induction of CIP2A protein degradation in human PLC5 cells incubated for 4 to 24 hrs", "assay_type": "functional, cell-based"}, "[32]": {"tested_on": "HA22T cell line", "test": "Inhibition of PP2A-A protein expression in human HA22T cells at 1 uM incubated for 24 hrs by Western blotting analysis", "assay_type": "functional, cell-based"}, "[33]": {"tested_on": "SK-HEP1", "test": "Inhibition of CIP2A protein expression in human SKHEP1 cells assessed as CIP2A protein expression ratio level at 0.5 uM by Western blotting analysis (Rvb =1)", "assay_type": "functional"}, "[34]": {"tested_on": "Mus musculus", "test": "Suppression of Akt phosphorylation at S473 residue in tumor of human PLC5 cells xenografted in mouse at 10 mg/kg dosed for 4 weeks by Western blot analysis", "assay_type": "functional, organism-based"}, "[35]": {"species": "Homo sapiens", "test": "Inhibition of PP2A-C protein expression in human PLC5 cells at 1 uM incubated for 24 hrs by Western blotting analysis", "assay_type": "functional, cell-based"}, "[36]": {"species": "Homo sapiens", "test": "Induction of apoptosis in human PLC5 cells assessed as caspase-3 activation at 0.5 to 4 uM incubated for 48 hrs by Western blotting analysis", "assay_type": "functional, cell-based"}, "[37]": {"species": "Homo sapiens", "test": "Induction of apoptosis in human PLC5 cells assessed as accumulation at subG1 phase at 0.5 to 4 uM by flow cytometry", "assay_type": "functional, cell-based"}, "[38]": {"test": "Inhibition of CIP2A protein expression in human PLC5 cells assessed as CIP2A protein expression ratio level at 2 uM by Western blotting analysis (Rvb =1)", "assay_type": "functional"}, "[39]": {"tested_on": "SK-HEP1", "test": "Inhibition of CIP2A protein expression in human SKHEP1 cells assessed as CIP2A protein expression ratio level at 1uM by Western blotting analysis (Rvb =1)", "assay_type": "functional"}}, "note": "The source made the active and inactive calls. The rule behind the calls is not given here.", "data": [{"compound": "C#Cc1cccc(Nc2nc3ccccc3nc2Nc2cccc(C#C)c2)c1", "values": [{"measurement": "Activity", "setting": "[1]", "value": "Active"}, {"measurement": "Activity", "setting": "[2]", "value": 50, "unit": "%"}, {"measurement": "Activity", "setting": "[3]", "value": 50, "unit": "%"}, {"measurement": "Activity", "setting": "[4]", "value": "Dose-dependent effect"}, {"measurement": "MEC", "setting": "[5]", "value": "100 to 200", "unit": "nM"}, {"measurement": "inhibition", "setting": "[6]", "value": "inactive"}, {"measurement": "Activity", "setting": "[7]", "value": 50, "unit": "%"}, {"measurement": "Activity", "setting": "[8]", "value": "Active"}, {"measurement": "inhibition", "setting": "[9]", "value": "Dose-dependent effect"}, {"measurement": "Activity", "setting": "[10]", "value": "Dose-dependent effect"}, {"measurement": "Ratio", "setting": "[11]", "value": 0.21}, {"measurement": "inhibition", "setting": "[12]", "value": "inactive"}, {"measurement": "Activity", "setting": "[13]", "value": "inactive"}, {"measurement": "MEC", "setting": "[14]", "value": "100 to 200", "unit": "nM"}, {"measurement": "Activity", "setting": "[15]", "value": "Dose-dependent effect"}, {"measurement": "Ratio", "setting": "[16]", "value": 0.87}, {"measurement": "Activity", "setting": "[17]", "value": 50, "unit": "%"}, {"measurement": "Activity", "setting": "[18]", "value": "Dose-dependent effect"}, {"measurement": "inhibition", "setting": "[19]", "value": "Dose-dependent effect"}, {"measurement": "Activity", "setting": "[20]", "value": "Dose-dependent effect"}, {"measurement": "inhibition", "setting": "[21]", "value": "Dose-dependent effect"}, {"measurement": "Activity", "setting": "[22]", "value": "inactive"}, {"measurement": "Activity", "setting": "[23]", "value": "Active"}, {"measurement": "Ratio", "setting": "[24]", "value": 0.84}, {"measurement": "Ratio", "setting": "[25]", "value": 0.99}, {"measurement": "Activity", "setting": "[26]", "value": "Active"}, {"measurement": "inhibition", "setting": "[27]", "value": "Dose-dependent effect"}, {"measurement": "inhibition", "setting": "[28]", "value": "inactive"}, {"measurement": "inhibition", "setting": "[29]", "value": "inactive"}, {"measurement": "inhibition", "setting": "[30]", "value": "inactive"}, {"measurement": "Activity", "setting": "[31]", "value": "inactive"}, {"measurement": "inhibition", "setting": "[32]", "value": "inactive"}, {"measurement": "Ratio", "setting": "[33]", "value": 0.73}, {"measurement": "Activity", "setting": "[34]", "value": "Active"}, {"measurement": "inhibition", "setting": "[35]", "value": "inactive"}, {"measurement": "Activity", "setting": "[36]", "value": "Dose-dependent effect"}, {"measurement": "Activity", "setting": "[37]", "value": "Active"}, {"measurement": "Ratio", "setting": "[38]", "value": 0.01}, {"measurement": "Ratio", "setting": "[39]", "value": 0.32}]}]}
